Laboratory results published in article PMC11400957 (The Journal of Biological Chemistry, 2024).

Target: IpaD^WT (full-length) (Shigella flexneri, UniProt P18013)
Assay: CD thermal unfolding at […] nm
Format: binding
Conditions: 1 mM DOC, PBS pH 7.4, 0.5 mg/ml protein; absolute Tm with ligand, not a shift; nonspecific detergent effect not excluded

Chain of IpaD^WT (full-length) (P18013 whole entry): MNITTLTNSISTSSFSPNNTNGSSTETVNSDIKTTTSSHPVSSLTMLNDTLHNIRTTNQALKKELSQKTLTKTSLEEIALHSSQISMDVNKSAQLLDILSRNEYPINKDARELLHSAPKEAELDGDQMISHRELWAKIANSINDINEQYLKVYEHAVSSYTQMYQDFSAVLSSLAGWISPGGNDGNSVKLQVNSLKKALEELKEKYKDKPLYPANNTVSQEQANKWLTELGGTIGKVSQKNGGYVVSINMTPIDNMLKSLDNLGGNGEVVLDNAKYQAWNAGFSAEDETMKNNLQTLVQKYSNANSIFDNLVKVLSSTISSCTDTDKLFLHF

## C[C@H](CCC(=O)O)[C@H]1CC[C@H]2[C@@H]3CC[C@@H]4C[C@H](O)CC[C@]4(C)[C@H]3C[C@H](O)[C@]12C [deoxycholate]
  Tm ^b (°C ± SD) / +DOC: 77 ± 1 °C
